This note sets out measurements from US7915448B2, “Substituted sulfonylaminoarylmethyl cyclopropanecarboxamide as VR1 receptor antagonists” (Pfizer Inc., priority 2005, dated 2011).

The conditions of data set [1]: human, microsomes, pH 7.4.
Description: (§1) Test compounds (1 μM) were incubated with 3.3 mM MgCl2 and 0.78 mg/mL HLM (HL101) in 100 mM potassium phosphate buffer (pH 7.4) at 37° C. on the 96-deep well plate. The reaction mixture was split into two groups, a non-P450 and a P450 group. NADPH was only added to the reaction mixture of the P450 group. An aliquot of samples of P450 group was collected at 0, 10, 30, and 60 min time point, where 0 min time point indicated the time when NADPH was added into the reaction mixture of P450 group. An aliquot of samples of non-P450 group was collected at −10 and 65 min time point. Collected aliquots were extracted with acetonitrile solution containing an internal standard. The precipitated protein was spun down in centrifuge (2000 rpm, 15 min). The compound concentration in supernatant was measured by LC/MS/MS system.
(§2) The half-life value was obtained by plotting the natural logarithm of the peak area ratio of compounds/internal standard versus time. The slope of the line of best fit through the points yields the rate of metabolism (k).
Data set [2] concerns the target T1, human VR1 receptors (Homo sapiens, UniProt Q8NER1).
T1 construct: host or cells: cells highly expressing human VR1; cell type not specified
Put plainly: Human VR1 antagonist assay (Ca2+ imaging). It is filed as cell-based. Particulars: cells expressing human VR1, fura-2 Ca2+ imaging, FDSS 6000; capsaicin (300 nM) or acid (pH5.8) stimulation, table does not say which. Summed up: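 Human VR1-expressing cells loaded with 5 μM fura-2/AM for 1 h, resuspended at 3.75×10^5 cells/ml and preincubated 15 min at room temperature in the dark with compound. Stimulation by 300 nM capsaicin in KRH buffer pH 7.3, or by acid (HBSS/MES, final pH 5.8) from HBSS-HEPES pH 7.4; fluorescence (ex 340/380 nm, em 510-520 nm) monitored from 1 min before addition for 5 min.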

Data set [3] is described as follows: Half-life in Human Liver Microsomes (HLM). The settings on record: pH 7.4; for half-life at 1 μM: human, human liver microsomes (HL101). (Liver microsomes are vesicles of endoplasmic reticulum, rich in cytochrome P450 enzymes.)
Description: as §1, §2

pIC50: −log10 of the molar value. Where two headings read alike, the source gives them in different places. A value given as a limit tells only on which side of the number the result lay.

T1 sequence (Q8NER1 whole entry): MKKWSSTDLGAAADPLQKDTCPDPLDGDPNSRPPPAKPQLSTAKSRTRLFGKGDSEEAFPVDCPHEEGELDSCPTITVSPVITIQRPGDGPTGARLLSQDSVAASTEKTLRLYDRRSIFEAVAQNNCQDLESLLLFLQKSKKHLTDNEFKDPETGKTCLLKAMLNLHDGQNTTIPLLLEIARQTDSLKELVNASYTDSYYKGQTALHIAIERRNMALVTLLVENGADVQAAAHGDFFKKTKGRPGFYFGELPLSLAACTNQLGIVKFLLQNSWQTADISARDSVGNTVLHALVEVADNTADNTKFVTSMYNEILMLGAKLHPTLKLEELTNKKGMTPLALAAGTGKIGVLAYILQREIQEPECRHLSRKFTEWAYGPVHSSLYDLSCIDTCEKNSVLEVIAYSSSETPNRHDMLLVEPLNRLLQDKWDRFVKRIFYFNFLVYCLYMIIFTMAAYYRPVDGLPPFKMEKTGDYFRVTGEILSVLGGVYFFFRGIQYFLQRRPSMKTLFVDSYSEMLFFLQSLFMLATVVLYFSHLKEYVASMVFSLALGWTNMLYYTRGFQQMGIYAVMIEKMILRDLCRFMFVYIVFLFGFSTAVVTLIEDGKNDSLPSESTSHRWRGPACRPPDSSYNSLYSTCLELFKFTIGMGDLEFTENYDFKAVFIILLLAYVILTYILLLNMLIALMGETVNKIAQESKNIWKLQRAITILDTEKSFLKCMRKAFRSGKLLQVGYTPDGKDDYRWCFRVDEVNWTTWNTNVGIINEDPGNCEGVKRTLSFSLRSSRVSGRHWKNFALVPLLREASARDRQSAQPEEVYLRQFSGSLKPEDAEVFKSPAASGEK

Consider `Cc1cc([C@@H](C)NC(=O)C2CC2c2ccc(C(C)(C)C)cc2)ccc1NS(C)(=O)=O` (some centres unmarked) [Example 7, 2-(4-tert-Butylphenyl)-N-((1 FR)-1-{3-methyl-4-[(methylsulfonyl)amino]phenyl}ethyl)cyclopropanecarboxamide], for which, in data set [1], the “T1/2” value was determined as 33 min. The pIC50 – broadly, the IC50 on a negative log10 scale, so that one unit is a factor of ten – in data set [2] is 7.82.

In data set [2], `Cc1cc([C@@H](C)NC(=O)C2CC2c2ccc(C(C)(C)C)nc2N2CCCCC2)ccc1NS(C)(=O)=O` (stereo partly drawn) [Example 49, 2-(6-tert-Butyl-2-piperidin-1-ylpyridin-3-yl)-N-((1R)-1-{3-methyl-4-[(methylsulfonyl)amino]phenyl}ethyl)cyclopropanecarboxamide] had a negative-log IC50 (pIC50) of 6.90. Further, in data set [3], the half-life (in general, the time needed for the level to fall by half in the phase considered) at 1 μM stood at 3 min.

The compound `C[C@@H](NC(=O)C1CC1c1ccc(C(C)(C)C)nc1N1CCCCC1)c1ccc(NS(C)(=O)=O)c(F)c1` (stereo partly drawn) [Example 50, 2-(6-tert-Butyl-2-piperidin-1-ylpyridin-3-yl)-N-((1R)-1-{3-fluoro-4-[(methylsulfonyl)amino]phenyl}ethyl)cyclopropanecarboxamide] gave a pIC50 in data set [2] of 6.62. Moreover, the half-life at 1 μM in data set [3] was 4 min.

In data set [2], `Cc1cc([C@@H](C)NC(=O)C2CC2c2ccc(C(C)(C)C)nc2N2CCCC2)ccc1NS(C)(=O)=O` (stereo partly drawn) [Example 51, 2-(6-tert-Butyl-2-pyrrolidin-1-ylpyridin-3-yl)-N-((1R)-1-{3-methyl-4-[(methylsulfonyl)amino]phenyl}ethyl)cyclopropanecarboxamide] had a pIC50 of 7.81. In addition, in data set [3], the half-life at 1 μM is 5 min.

For the compound `Cc1cc([C@@H](C)NC(=O)C2CC2c2ccc(C(C)(C)C)nc2)ccc1NS(C)(=O)=O` (stereo partly drawn) [Example 53, 2-[6-tert-Butylpyridin-3-yl]-N-((1R)-1-{3-methyl-4-[(methylsulfonyl)amino]phenyl}ethyl)cyclopropanecarboxamide], the negative logarithm of the IC50 (pIC50) in data set [2] is 6.90. Moreover, the half-life at 1 μM in data set [3] amounted to 44 min.

`Cc1nc([C@@H](C)NC(=O)C2CC2(C)c2ccc(C(F)(F)F)cc2)ccc1NS(C)(=O)=O` (some centres unmarked) [Example 54] had a negative logarithm of the IC50 (pIC50) in data set [2] of 6.63. In data set [3], the half-life at 1 μM came out at 96 min.

Regarding `Cc1cc([C@@H](C)NC(=O)C2CC2(CO)c2ccc(C(C)(C)C)cc2)ccc1NS(C)(=O)=O` (stereo partly drawn) [Example 59, 2-[4-tert-Butylphenyl]-2-(hydroxymethyl)-N-((1R)-1-{3-methyl-4-[(methylsulfonyl)amino]phenyl}ethyl)cyclopropanecarboxamide], the pIC50 in data set [2] was 6.58. The compound also showed a half-life at 1 μM in data set [3] of 22 min.

Regarding `C[C@@H](NC(=O)[C@H]1C[C@]1(C)c1ccc(C(F)(F)F)cc1)c1cc(F)c(NS(C)(=O)=O)cc1F` [Example 60, (1S,2S)-N-((1R)-1-{2,5-Difluoro-4-[(methylsulfonyl)amino]phenyl}ethyl)-2-methyl-2-[4-(trifluoromethyl)phenyl]cyclopropanecarboxamide], the pIC50 in data set [2] was 7.60. Also, in data set [3], the half-life at 1 μM is above 120 min.

In the case of `C[C@@H](NC(=O)[C@H]1C[C@]1(C)c1ccc(C(F)(F)F)cc1)c1cc(F)c(NS(C)(=O)=O)c(F)c1` [Example 61, (1S,2S)-N-((1R)-1-{3,5-Difluoro-4-[(methylsulfonyl)amino]phenyl}ethyl)-2-methyl-2-[4-(trifluoromethyl)phenyl]cyclopropanecarboxamide], the pIC50 in data set [2] is 8.50. The same compound showed a half-life at 1 μM in data set [3] above 120 min.

Regarding `COC1(c2ccc(C(F)(F)F)cc2)CC1C(=O)N[C@H](C)c1ccc(NS(C)(=O)=O)c(C)c1` (stereo partly drawn) [Example 63, N-((1R)-1-{3-Methyl-4-[(methylsulfonyl)amino]phenyl}ethyl)-2-(methyloxy)-2-[4-(trifluoromethyl)phenyl]cyclopropanecarboxamide], the negative logarithm of the IC50 (pIC50) in data set [2] is 8.18. In addition, in data set [3], the half-life at 1 μM was found to be 35.6 min.

`COC1(c2ccc(C(C)(C)C)cc2)CC1C(=O)N[C@H](C)c1ccc(NS(C)(=O)=O)c(C)c1` (stereo partly drawn) [Example 64, 2-[4-tert-Butylphenyl]-N-((1R)-1-{3-methyl-4-[(methylsulfonyl)amino]phenyl}ethyl)-2-(methyloxy)cyclopropanecarboxamide]: the pIC50 in data set [2] was 8.34. This compound came in with a half-life at 1 μM in data set [3] of 14 min.

`Cc1cc([C@@H](C)NC(=O)C2CC2(C)c2ccc(C(F)(F)F)c(F)c2)ccc1NS(C)(=O)=O` (stereo partly drawn) [Example 66, 2-[3-Fluoro-4-(trifluoromethyl)phenyl]-2-methyl-N-((1R)-1-{3-methyl-4-[(methylsulfonyl)amino]phenyl}ethyl)cyclopropanecarboxamide] showed a negative-log IC50 (pIC50) in data set [2] of 9.38. In addition, the half-life at 1 μM in data set [3] was found to be 34 min.

`C[C@@H](NC(=O)C1CC1(C)c1ccc(C(F)(F)F)c(F)c1)c1ccc(NS(C)(=O)=O)c(F)c1` (stereo partly drawn) [Example 67, N-((1R)-1-{3-Fluoro-4-[(methylsulfonyl)amino]phenyl}ethyl)-2-[3-fluoro-4-(trifluoromethyl)phenyl]-2-methylcyclopropanecarboxamide] showed a pIC50 in data set [2] of 8.25. The compound also had a half-life at 1 μM in data set [3] of 95 min.

As for `Cc1cc([C@@H](C)NC(=O)C2CC2c2ccc(C(C)(C)C)cc2CO)ccc1NS(C)(=O)=O` (stereo partly drawn) [Example 68, 2-[4-tert-Butyl-2-(hydroxymethyl)phenyl]-N-((1R)-1-{3-methyl-4-[(methylsulfonyl)amino]phenyl}ethyl)cyclopropanecarboxamide], the pIC50 in data set [2] was 7.21. For the same compound, in data set [3], the half-life at 1 μM turned out to be 18 min.

Turning to `C[C@@H](NC(=O)C1CC1(C)c1ccc(S(=O)(=O)C(F)(F)F)cc1)c1ccc(NS(C)(=O)=O)c(CO)c1` (stereo partly drawn) [Example 69, N-((1R)-1-{3-(Hydroxymethyl)-4-[(methylsulfonyl)amino]phenyl}ethyl)-2-methyl-2-{4-[(trifluoromethyl)sulfonyl]phenyl}cyclopropanecarboxamide], the pIC50 in data set [2] was 6.67. In data set [3], this compound had a half-life at 1 μM of 30 min.

For `Cc1cc([C@@H](C)NC(=O)[C@H]2C[C@]2(C)c2ccc(C(F)(F)F)cc2)ccc1NS(C)(=O)=O` [Example 70, (1S,2S)-2-Methyl-N-((1R)-1-{3-methyl-4-[(methylsulfonyl)amino]phenyl}ethyl)-2-[4-(trifluoromethyl)phenyl]cyclopropanecarboxamide], the negative logarithm of the IC50 (pIC50) in data set [2] was 9.08. Moreover, in data set [3] (1 μM compound, 0.78 mg/mL HLM, 37° C., NADPH), the “T1/2” value is 38 min.

With `C[C@@H](NC(=O)C1CC1(C)c1ccc(C(F)(F)F)c(F)c1)c1cc(F)c(NS(C)(=O)=O)c(F)c1` (stereo partly drawn) [Example 73, N-((1R)-1-{3,5-Difluoro-4-[(methylsulfonyl)amino]phenyl}ethyl)-2-[3-fluoro-4-(trifluoromethyl)phenyl]-2-methylcyclooropanecarboxamide], in data set [1], the “T1/2” value is above 120 min. The same compound had a pIC50 in data set [2] of 9.12.

As to `C[C@@H](NC(=O)[C@@H]1C[C@@]1(C)c1ccc(C(F)(F)F)c(F)c1)c1cc(F)c(NS(C)(=O)=O)c(F)c1` [Example 74, N-((1R)-1-{3,5-Difluoro-4-[(methylsulfonyl)amino]phenyl}ethyl)-2-[3-fluoro-4-(trifluoromethyl)phenyl]-2-methylcyclopropanecarboxamide], in data set [2], the pIC50 is 7.68. For the same compound, the half-life at 1 μM in data set [3] was above 120 min.

Regarding `CC[C@@H](NC(=O)[C@H]1C[C@@H]1c1cc(F)c(C(C)(C)C)c(F)c1)c1ccc(NS(C)(=O)=O)c(C)c1` [Example 76, 2-(4-tert-Butyl-3,5-difluorophenyl)-N-((1R)-1-{3-methyl-4-[(methylsulfonyl)amino]phenyl}propyl)cyclopropanecarboxamide], the pIC50 in data set [2] is 7.58. This compound also returned a half-life at 1 μM in data set [3] of 33 min.

Compound `Cc1cc([C@@H](C)NC(=O)[C@H]2C[C@@H]2c2ccc(C(F)(F)F)nc2N(C)C)c(F)cc1NS(C)(=O)=O` [Example 79, 2-[2-(Dimethylamino)-6-(trifluoromethyl)pyridin-3-yl]-N-((1R)-1-{2-fluoro-5-methyl-4-[(methylsulfonyl)amino]phenyl}ethyl)cyclopropanecarboxamide] showed a pIC50 in data set [2] of 7.69. The compound further registered a half-life at 1 μM in data set [3] of 22 min.

Turning to `Cc1cc([C@@H](C)NC(=O)[C@H]2C[C@]2(C)c2ccc(C(F)(F)F)nc2N2CCOCC2)ccc1NS(C)(=O)=O` [Example 84, 2-Methyl-N-((1R)-1-{3-methyl-4-[(methylsulfonyl)amino]phenyl}ethyl)-2-[2-morpholin-4-yl-6-(trifluoromethyl)pyridin-3-yl]cyclopropanecarboxamide], in data set [2], the negative logarithm of the IC50 (pIC50) is 7.61. In addition, the half-life at 1 μM in data set [3] was 3 min.

With “N-((1R)-1-{3,5-Difluoro-4-[(methylsulfonyl)amino]phenyl}ethyl)-2-[3,5-difluoro-4-(2,2,2-trifluoro-1-dimethylethyl)phenyl]-2-methylcyclopropanecarboxamide [Example 80]”, in data set [1], the “T1/2” value came to 117 min. Further, the pIC50 in data set [2] is 8.52.
